Results on 3 molecules are retold here after patent US8703736B2, “Therapeutic target for pancreatic cancer cells” (The Translational Genomics Research Institute, priority 2011, dated 2014).

For data set [1], the system named is Collagen 1 mRNA in cultured human stellate cells. In words: Quantitative PCR analysis of Collagen 1 mRNA levels (FIG. 11). The class given is cell-based. As to conditions: highest concentration of fasudil (100 μm). As to the method:
Fasudil inhibits collagen expression in cultured human stellate cells: The analysis of collagen expression in cultured human stellate cells exposed to Fasudil was carried out using quantitative PCR analysis of Collagen 1 mRNA levels.

The subject of the next data set is Panc-1. In words: Drug dose-response curves, cell proliferation, Panc-1. As to conditions: Homo sapiens, read-out: cell proliferation, IC50 values. The class given is cell-based. As to the method: (§1) Efficacy of ROCK inhibition evaluated by drug dose-response curves: The small molecule ROCK1 inhibitors, fasudil and Y27632, were analyzed for their effects in pancreatic cancer cell lines. Drug dose-response curves were created to assess the efficacy of ROCK inhibition at 72 hours of drug exposure. FIG. 5A presents the drug dose-response curves for fasudil exposure in MiaPaca, Su8686, Panc-1 and CW1 cell line cells. FIG. 5B presents the drug dose-response curves for Y-27632 exposure in the same above mentioned cell lines. Gemcitabine, a nucleoside analog, replaces one of the building blocks, cytidine, during DNA replication and thus arrests tumor growth, which leads to cell death. Gemcitabine is shown for reference as illustrated in FIG. 5C.

Data set [2] relates to co-culture of human pancreatic cancer-derived fibroblasts and SU8686 cells. In words: Co-culture stained for cytokeratin and αSMA (FIG. 12). The class given is cell-based. As to conditions: 72 hours. The source says: Fasudil inhibits stellate cell proliferation and function: The effects of fasudil on the proliferation and expansion of the stromal compartment in a co-culture of human pancreatic cancer-derived fibroblasts and SU8686 cells were compared. […] Subsequently, cells were fixed and stained for the epithelial cell marker, cytokeratin, in green, and αSMA, in red.

The test system of the next data set is CW1. In words: Drug dose-response curves, cell proliferation, CW1. As to conditions: Homo sapiens, read-out: ROCK1 inhibition, IC50 values. The class given is cell-based. As to the method: as §1
Another data set deals with PDA cell proliferation. In words: Inhibition of PDA cell proliferation (summary over cell lines). The conditions noted are these: Homo sapiens; range over cell lines of TABLE 2; 72 hours; read-out: IC50s range, inhibition of PDA cell proliferation. The class given is cell-based. As to the method: as §1
Another data set has as its system Su8686. Description: Drug dose-response curves, cell proliferation, Su8686. The class given is cell-based. The conditions noted are these: Homo sapiens. As to the method:
as §1

The next data set has as its system MiaPaca2. Description: Drug dose-response curves, cell proliferation, MiaPaca2. The class given is cell-based. As to conditions: Homo sapiens, read-out: ROCK1 inhibition, IC50 values. As to the method: as §1
Data set [3] concerns co-culture of human pancreatic cancer-derived myofibroblasts and SU8686 cells. In words: Co-culture stained for aSMA and collagen 1 (FIG. 7). As to conditions: 72 hours. The class given is cell-based.
Data set [4] deals with Panc-1 cells. Description: SRB (Sulphorhodamine) cell viability assay with fasudil. The class given is cell-based, human. As to the method: To further study the effects of fasudil at these concentrations on growth, an SRB (Sulphorhodamine) cell viability assay was performed. […] In both FIGS. 6A and 6B, “UT” stands for untreated; and “SFM” stands for serum-free media.
The test system of data set [5] is collagen 1 in CW1 myofibroblasts and SU8686 cells. Description: Collagen 1 expression in single and co-cultures, dot blot (FIG. 8). The class given is cell-based, human. As to the method: Fasudil reduces collagen synthesis in co-cultured pancreatic cells: The effects of fasudil on the expression of collagen 1 in single and co-cultures of human myofibroblasts and SU8686 cells were examined. These cells were seeded and then treated with fasudil for 72 hours at the concentrations indicated. Treatment conditions are shown at top of the figure panel, and standard curve concentrations are shown below the figure panel (FIG. 8A). Calibrated collagen concentrations were shown in FIG. 8B (20 μg total protein loaded per sample). […] Fasudil inhibits collagen expression in cultured human stellate cells: The analysis of collagen expression in cultured human stellate cells exposed to Fasudil was carried out using quantitative PCR analysis of Collagen 1 mRNA levels.

Data set [6] deals with Panc-1 cells. In words: Modified Boyden Chamber Assay, cell migration. The class given is cell-based, human. As to conditions: at both 500 μM and 20 μM.
[7] abbreviates: Panc-1 cell line, 72 hours of drug exposure, read-out: ROCK1 inhibition, IC50 values.
Setting [8] is: CW1 cell line, 72 hours of drug exposure.
The mark [9] stands for this setting: SU.86.86, Su8686 cell line, 72 hours of drug exposure, read-out: ROCK1 inhibition, IC50 values.
Setting [10] is: MIA PaCa-2, MiaPaca2 cell line, 72 hours of drug exposure.

The structures appear in SMILES notation. Where two headings read alike, the source gives them in different places.

For `O=S(=O)(c1cccc2cnccc12)N1CCCNCC1` [Fasudil, 5-(1,4-diazepan-1-ylsulfonyl)isoquinoline], in data set [1], the “collagen expression (Collagen 1 mRNA)” value is reported as “three-fold decrease in collagen expression”. The IC50 in the data set with Panc-1 (setting [7]) is more than 100 µM; with CW1 (setting [8]), 66 µM; in the data set with PDA cell proliferation, 6 to 71 µM; with Su8686 (setting [9]), 71.2 µM; with MiaPaca2 (setting [10]), 55 µM. Also, in [2] (50 μM, 25 μM, and 12 μM), the “inhibition of aSMA expressing cells (stellate cells)” value was “selectively inhibited”. For the same molecule, the “cell proliferation of both cancer cells and stellate cells relative to untreated” value in data set [2] (100 μM) is recorded as “significant reduction in cell proliferation”. Moreover, the “inhibition of aSMA and collagen 1 expressing myofibroblasts” value in [3] (50 μM, 25 μM, and 12 μM) is “selectively inhibited”. Further, in data set [3] (100 μM), the “cell proliferation of both cancer cells and myofibroblasts relative to untreated” value is “significant reduction in cell proliferation”. Also, in the data set with Panc-1 cells [4] (20 μM), the cytotoxicity result was “no significant cytotoxicity”. In the data set on Panc-1 cells [4] (500 μM, 24 hours), this molecule had a cell survival of 50.3%. In [5] (100 μM, 50 μM, and 25 μM, 72 hours), the “collagen synthesis relative to the untreated sample” value was “significant reduction in collagen synthesis”. Further, in [5] (monocultured stellate cells (CW1) and co-cultured tumor/stellate cells (CW1/SU8686), 6-100 μm), the “collagen expression, dot blot on protein lysates” value is “Decreased collagen expression”. In the data set on Panc-1 cells [6], the “migrating cells relative to serum (chemoattractant) containing media control” value is listed as “significant reduction in migrating cells”.

With `Nc1ccn([C@@H]2O[C@H](CO)[C@@H](O)C2(F)F)c(=O)n1` [Gemcitabine], the IC50 with Panc-1 (setting [7]) was more than 100 µM; with CW1 (setting [8]), more than 100 µM; in the data set with Su8686 (setting [9]), 0.017 µM; in the data set on MiaPaca2 (setting [10]) it was 0.056 µM.

Take `CC(N)C1CCC(C(=O)Nc2ccncc2)CC1` (stereo not drawn) [Y27632, 4-(1-aminoethyl)-N-pyridin-4-yl-cyclohexane-1-carboxamide]: the IC50 with Panc-1 (PANC-1, 72 h) is more than 100 µM; with CW1 (72 h), 6.4 µM; with PDA cell proliferation, 6 to 71 µM; in the data set with Su8686 (SU.86.86, 72 h), 27.9 µM; in the data set with MiaPaca2 (MIA PaCa-2, 72 h), 6.8 µM.
